Source: patent publication US20240294478A1, “ANTI-CANCER COMPOUNDS AND METHODS OF USE” (YALE UNIVERSITY, priority 2021, published 2024)

Key:
[1] = test system: DLD1 colorectal adenocarcinoma cells (MSH6−); assay: Short-term viability assay, DLD1 MSH6-deficient cells +/- O6BG; type: cell-based, human; settings: with or without 10 μM O6BG pre-treatment (MGMT depletion)
Experimental: FIG. 1B: Short-term viability assay curves for KL-50 in DLD1 MSH6-deficient cells pre-treated with 0.01% DMSO control (CTR) or 10 μM O^6BG (+O^6BG) for 1 h prior to KL-50 addition. […] Short-term viability assay curves for (FIG. 1E) KL-50 in HCT116 MLH1−/−cells or (FIG. 1F) HCT116 cells complemented with chromosome 3 carrying wildtype MLH1 (+Chr3) pre-treated with 0.01% DMSO control or 10 μM O^6BG (+O^6BG) for 1 h prior to KL-50 addition. […] For these figures, points, mean; error bars, SD; n>3 technical replicates.
(§1) Short-term Cell Viability Assay. Cells were seeded in 96-well plates at 1000 or 2000 cells/well and allowed to adhere at 23° C. for 60 min and then incubated overnight at 37° C. Cells were treated with indicated concentrations of compounds in triplicate for 4-6 days prior to fixation with 3.7% paraformaldehyde and nuclear staining with 1 μg/mL Hoechst 33342 dye. Cells were imaged on a Cytation 3 imaging reader (BioTek) and quantified using CellProfiler software. For in vitro short-term growth delay experiments, IC50 values were determined from the nonlinear regression equation, [inhibitor] vs normalized response with variable slope.

MGMT− LN229 cells = assay: Clonogenic survival assay, LN229 MGMT- cells; type: cell-based, human
Experimental: In vitro clonogenic survival assays (CSAs) were performed using four isogenic LN229 glioblastoma cell lines.
Clonogenic Cell Survival Assay. Cells of each line were pretreated with the test drug in culture for 48-72 hours at the specified dilutions. The cells were then immediately seeded in six-well plates in triplicate at three-fold dilutions, ranging from 9000 to 37 cells per well. Depending on colony size, these plates were kept in the incubator for 10 to 14 days. After incubation, colonies were washed in phosphate-buffered saline (PBS) and stained with crystal violet. Colonies were counted by hand. Counts were normalized to plating efficiency of the corresponding treatment condition.

LN229 MGMT+ shMSH6 cells = assay: Short-term viability assay, LN229 MGMT+ shMSH6; type: cell-based; settings: Homo sapiens, LN-229, Table III, read-out: IC50 against LN229 cell lines, MGMT MMR−
Experimental: (§2) The activity of KL-50 in MGMT-LN229 cells engineered to lack expression of other key MMR proteins including MSH6, MLH1, PMS2, and MSH3 was also confirmed. Western blotting was performed in LN229 MGMT+/−cells with stable expression of shRNA targeting MSH6, MLH1, PMS2, or MSH3 to confirm depletion of the shRNA targets. In shMSH6 cells, there was reduced expression of MSH2, and in shMLH1 cells, there was loss of PMS2, due to destabilization in the setting of loss of their heterodimeric partners. GAPDH serves as loading control. […] Short-term viability assay curves for KL-50 in LN229 MGMT+/−, MMR+/shMSH6 cells. […] Short-term viability assay curves for KL-50 in LN229 MGMT+/−, MMR+/shMLH1 cells. […] Short-term viability assay curves for KL-50 in LN229 MGMT+/−, MMR+/shPMS2 cells. […] Short-term viability assay curves for KL-50 in LN229 MGMT+/−, MMR+/shMSH3 cells.
(§3) MMR Protein shRNA Knockdown. pGIPZ lentiviral shRNA vectors targeting MSH2, MSH6, MLH1, PMS2, and MSH3 were purchased from Horizon Discovery (Table IV). […]
(§4) Short-term Cell Viability Assay. […] Cells were imaged on a Cytation 3 imaging reader (BioTek) and quantified using CellProfiler software. For in vitro short-term growth delay experiments, IC50 values were determined from the nonlinear regression equation, [inhibitor] vs normalized response with variable slope.

LN229 MGMT+ shPMS2 cells = assay: Short-term viability assay, LN229 MGMT+ shPMS2; type: cell-based; settings: Homo sapiens, LN-229, Table III, read-out: IC50 against LN229 cell lines, MGMT MMR−
Experimental: as §2, §3, §4

LN229 MGMT− shMLH1 cells = assay: Short-term viability assay, LN229 MGMT- shMLH1; type: cell-based, human; settings: for IC50: Homo sapiens, LN-229, Table III, read-out: IC50 against LN229 cell lines, MGMT− MMR−; for MGMT− RI: Table III
Experimental: as §2
MMR Protein shRNA Knockdown. pGIPZ lentiviral shRNA vectors targeting MSH2, MSH6, MLH1, PMS2, and MSH3 were purchased from Horizon Discovery (Table IV). Lentiviral particles were produced in HEK293T cells via co-transfection with lentiviral shRNA plasmid, pCMV-VSV-G envelope plasmid (Addgene, #8454) and psPAX2 packaging plasmid (Addgene, #12260), using Lipofectamine 3000 Reagent (Invitrogen, L3000001) per manufacturer's protocol. Viral particles were harvested 48 h post-transfection and used to transduce LN229 MGMT+/−cells in the presence of 8 μg/mL polybrene. Selection of pooled cells with lentiviral expression was established with 1 μg/mL puromycin 48 h post-transduction for 3 to 4 days. Single cell cloning was performed by limiting dilution and protein knockdown was confirmed by western blotting.
as §1

Row | Structure (SMILES) | cytotoxicity in DLD1 cells [1] | clonogenic survival, antitumor activity in MGMT− cells (MGMT− LN229 cells; independent of MMR status) | IC50 (LN229 MGMT+ shMSH6 cells) [µM] | IC50 (LN229 MGMT+ shPMS2 cells) [µM] | IC50 (LN229 MGMT− shMLH1 cells) [µM] | MGMT− RI (LN229 MGMT− shMLH1 cells) | clonogenic survival, activity in MGMT−, MMR+ cells (MGMT− LN229 cells) | clonogenic survival, activity in MMR− cells (MGMT− LN229 cells; isogenic cells lacking MMR)
1 | NC(=O)c1ncn2c(=O)n(CCF)nnc12 [KL-50] | toxic to these cells, but only after O^6BG-induced MGMT depletion | robust antitumor activity | 362 ± 41 | 215 ± 16 | 7.8 ± 0.3 | 0.6 |  | 
2 | Cn1nnc2c(C(N)=O)ncn2c1=O [TMZ, 4-methyl-5-oxo-2,3,4,6,8-pentazabicyclo[4.3.0]nona-2,7,9-triene-9-carboxamide, reference compound] | inactive |  | 929 ± 201 | 700 ± 58 | 917 ± 85 | 180 | robust tumor cell killing | abolished
